In the OligoGym collection:
HELM strings list units from the 5' end as sugar, base in round brackets, then linkage (d deoxyribose, r ribose, m 2'-O-methyl, p phosphodiester). Strings are as the collection lists them; they lack the last nucleoside at the 3' end of the tested compound. [moe] = 2'-O-(2-methoxyethyl) (MOE); [sp] = phosphorothioate linkage; [m5C] = 5-methylcytosine

Target: ATXN2
Experiment: mouse, dose not given
Conditions: ASO

| Substance | 3 h FOB score [score 0-7] |
| --- | --- |
| RNA1{[moe]([m5C])[sp].[moe](A)p.[moe]([m5C])p.[moe](A)p.[moe](G)p.d(T)[sp].d(T)[sp].d(T)[sp].d([m5C])[sp].d(A)[sp].d([m5C])[sp].d(T)[sp].d(A)[sp].d(G)[sp].d(G)[sp].[moe](T)p.[moe](T)p.[moe]([m5C])[sp].[moe](T)}$$$$ (last 3' nucleoside missing) | 4.25 |
| RNA1{[moe](A)[sp].[moe]([m5C])p.[moe](T)p.[moe](T)p.[moe](T)[sp].d(T)[sp].d([m5C])[sp].d(T)[sp].d([m5C])[sp].d(A)[sp].d(T)[sp].d(G)[sp].d(T)[sp].[moe](G)p.[moe]([m5C])p.[moe](G)[sp].[moe](G)}$$$$ (last 3' nucleoside missing) | 3.25 |
| RNA1{[moe]([m5C])[sp].[moe](T)p.[moe](T)p.[moe](G)p.[moe](T)p.d(A)[sp].d([m5C])[sp].d(T)[sp].d(T)[sp].d([m5C])[sp].d(A)[sp].d([m5C])[sp].d(A)[sp].d(T)[sp].d(T)[sp].[moe](T)p.[moe](G)p.[moe](G)[sp].[moe](A)}$$$$ (last 3' nucleoside missing) | 2.25 |
| RNA1{[moe](T)[sp].[moe]([m5C])p.[moe](T)p.[moe](G)p.[moe](T)[sp].d(A)[sp].d([m5C])[sp].d(T)[sp].d(T)[sp].d(T)[sp].d(T)[sp].d([m5C])[sp].d(T)[sp].[moe]([m5C])p.[moe](A)p.[moe](T)[sp].[moe](G)}$$$$ (last 3' nucleoside missing) | 0.5 |
| RNA1{[moe](T)[sp].[moe](G)p.[moe](T)p.[moe](A)p.[moe]([m5C])p.d(T)[sp].d(T)[sp].d(T)[sp].d(T)[sp].d([m5C])[sp].d(T)[sp].d([m5C])[sp].d(A)[sp].d(T)[sp].d(G)[sp].[moe](T)p.[moe](G)p.[moe]([m5C])[sp].[moe](G)}$$$$ (last 3' nucleoside missing) | 1 |
| RNA1{[moe](T)[sp].[moe](A)p.[moe](A)p.[moe](T)p.[moe](A)p.d(T)[sp].d(T)[sp].d([m5C])[sp].d([m5C])[sp].d(A)[sp].d(T)[sp].d(A)[sp].d([m5C])[sp].d(A)[sp].d(G)[sp].[moe](A)p.[moe](T)p.[moe]([m5C])[sp].[moe](G)}$$$$ (last 3' nucleoside missing) | 0 |
| RNA1{[moe]([m5C])[sp].[moe](T)p.[moe](G)p.[moe]([m5C])p.[moe](T)p.d(A)[sp].d(A)[sp].d([m5C])[sp].d(T)[sp].d(G)[sp].d(G)[sp].d(T)[sp].d(T)[sp].d(T)[sp].d(G)[sp].[moe]([m5C])p.[moe]([m5C])p.[moe]([m5C])[sp].[moe](T)}$$$$ (last 3' nucleoside missing) | 6 |
| RNA1{[moe](T)[sp].[moe](A)p.[moe]([m5C])p.[moe](T)p.d(T)[sp].d(T)[sp].d(T)[sp].d([m5C])[sp].d(T)[sp].d([m5C])[sp].d(A)[sp].d(T)[sp].d(G)[sp].d(T)[sp].[moe](G)p.[moe]([m5C])p.[moe](G)p.[moe](G)[sp].[moe]([m5C])}$$$$ (last 3' nucleoside missing) | 1.75 |
| RNA1{[moe](G)[sp].[moe](G)p.[moe](T)p.[moe](G)p.[moe](G)p.d(T)[sp].d(G)[sp].d(T)[sp].d(G)[sp].d([m5C])[sp].d(G)[sp].d([m5C])[sp].d(A)[sp].d(T)[sp].d(G)[sp].[moe](T)p.[moe](A)p.[moe](G)[sp].[moe](A)}$$$$ (last 3' nucleoside missing) | 7 |
| RNA1{[moe](A)[sp].[moe]([m5C])p.[moe](T)p.[moe](T)p.d(T)[sp].d(T)[sp].d([m5C])[sp].d(T)[sp].d([m5C])[sp].d(A)[sp].d(T)[sp].d(G)[sp].d(T)[sp].d(G)[sp].[moe]([m5C])p.[moe](G)p.[moe](G)p.[moe]([m5C])[sp].[moe](A)}$$$$ (last 3' nucleoside missing) | 2.5 |
| RNA1{[moe](G)[sp].[moe](G)[sp].[moe](A)[sp].[moe](G)[sp].[moe]([m5C])[sp].d(T)[sp].d(G)[sp].d(G)[sp].d(A)[sp].d(G)[sp].d(A)[sp].d(A)[sp].d([m5C])[sp].d([m5C])[sp].d(A)[sp].[moe](T)[sp].[moe](G)[sp].[moe](A)[sp].[moe](G)}$$$$ (last 3' nucleoside missing) | 7 |
| RNA1{[moe]([m5C])[sp].[moe]([m5C])[sp].[moe]([m5C])[sp].[moe](A)[sp].[moe](T)[sp].d(A)[sp].d([m5C])[sp].d(G)[sp].d([m5C])[sp].d(G)[sp].d(G)[sp].d(T)[sp].d(G)[sp].d(A)[sp].d(A)[sp].[moe](T)[sp].[moe](T)[sp].[moe]([m5C])[sp].[moe](T)}$$$$ (last 3' nucleoside missing) | 7 |
| RNA1{[moe]([m5C])[sp].[moe](A)p.[moe](T)p.[moe](T)p.[moe](T)p.d(T)[sp].d(G)[sp].d(A)[sp].d(A)[sp].d(T)[sp].d(T)[sp].d(A)[sp].d([m5C])[sp].d(A)[sp].d(A)[sp].[moe](T)p.[moe](G)p.[moe]([m5C])[sp].[moe](G)}$$$$ (last 3' nucleoside missing) | 1 |
| RNA1{[moe](T)[sp].[moe](T)p.[moe](A)p.[moe]([m5C])p.[moe](T)[sp].d(G)[sp].d(T)[sp].d(T)[sp].d(T)[sp].d([m5C])[sp].d(G)[sp].d(A)[sp].d([m5C])[sp].[moe]([m5C])p.[moe](T)p.[moe]([m5C])[sp].[moe](T)}$$$$ (last 3' nucleoside missing) | 6 |
| RNA1{[moe](T)[sp].[moe](T)p.[moe](T)p.[moe]([m5C])p.[moe](T)p.d([m5C])[sp].d(A)[sp].d(T)[sp].d(G)[sp].d(T)[sp].d(G)[sp].d([m5C])[sp].d(G)[sp].d(G)[sp].d([m5C])[sp].[moe](A)p.[moe](T)p.[moe]([m5C])[sp].[moe](A)}$$$$ (last 3' nucleoside missing) | 6 |
| RNA1{[moe](G)[sp].[moe]([m5C])p.[moe](T)p.[moe](T)p.[moe](A)p.d(T)[sp].d(T)[sp].d(A)[sp].d(T)[sp].d(T)[sp].d([m5C])[sp].d(T)[sp].d([m5C])[sp].d(A)[sp].d([m5C])[sp].[moe](A)p.[moe](T)p.[moe](A)[sp].[moe](T)}$$$$ (last 3' nucleoside missing) | 0 |
| RNA1{[moe]([m5C])[sp].[moe](T)p.[moe](T)p.[moe]([m5C])p.[moe](T)p.d(G)[sp].d([m5C])[sp].d(T)[sp].d(A)[sp].d(A)[sp].d([m5C])[sp].d(T)[sp].d(G)[sp].d(G)[sp].d(T)[sp].[moe](T)p.[moe](T)p.[moe](G)[sp].[moe]([m5C])}$$$$ (last 3' nucleoside missing) | 2.5 |
| RNA1{[moe]([m5C])[sp].[moe](T)p.[moe](A)p.[moe](T)p.[moe]([m5C])[sp].d(A)[sp].d(T)[sp].d([m5C])[sp].d(A)[sp].d(T)[sp].d(T)[sp].d(T)[sp].d(T)[sp].[moe]([m5C])p.[moe]([m5C])p.[moe](A)[sp].[moe](G)}$$$$ (last 3' nucleoside missing) | 1 |
| RNA1{[moe](A)[sp].[moe](T)p.[moe](G)p.[moe]([m5C])p.[moe](A)p.d([m5C])[sp].d(T)[sp].d(G)[sp].d([m5C])[sp].d(T)[sp].d(T)[sp].d(G)[sp].d([m5C])[sp].d([m5C])[sp].d(T)[sp].[moe](G)p.[moe](G)p.[moe](A)[sp].[moe](G)}$$$$ (last 3' nucleoside missing) | 5 |
| RNA1{[moe](G)[sp].[moe]([m5C])p.[moe](T)p.[moe](T)p.[moe](A)p.d(G)[sp].d(A)[sp].d(G)[sp].d(T)[sp].d(T)[sp].d(T)[sp].d(T)[sp].d(T)[sp].d(G)[sp].d([m5C])[sp].[moe]([m5C])p.[moe](T)p.[moe](T)[sp].[moe]([m5C])}$$$$ (last 3' nucleoside missing) | 4 |
| RNA1{[moe]([m5C])[sp].[moe](G)p.[moe](G)p.[moe](A)p.[moe](T)p.d(T)[sp].d(G)[sp].d(T)[sp].d(T)[sp].d(T)[sp].d(T)[sp].d([m5C])[sp].d(T)[sp].d(T)[sp].d([m5C])[sp].[moe](A)p.[moe](T)p.[moe](T)[sp].[moe](A)}$$$$ (last 3' nucleoside missing) | 1 |
| RNA1{[moe](G)[sp].[moe](A)p.[moe](G)p.[moe](T)p.[moe](T)p.d([m5C])[sp].d(A)[sp].d([m5C])[sp].d([m5C])[sp].d(T)[sp].d(G)[sp].d([m5C])[sp].d(A)[sp].d(T)[sp].d([m5C])[sp].[moe]([m5C])p.[moe]([m5C])p.[moe](A)[sp].[moe](G)}$$$$ (last 3' nucleoside missing) | 6 |
| RNA1{[moe](T)[sp].[moe](G)p.[moe](T)p.[moe]([m5C])p.[moe](A)p.d(T)[sp].d(A)[sp].d([m5C])[sp].d(T)[sp].d(G)[sp].d(T)[sp].d(A)[sp].d(T)[sp].d(T)[sp].d(G)[sp].[moe](T)p.[moe](T)p.[moe](T)[sp].[moe](T)}$$$$ (last 3' nucleoside missing) | 5.25 |
| RNA1{[moe]([m5C])[sp].[moe](T)p.[moe](G)p.[moe](G)p.[moe](A)p.[moe](T)p.d(T)[sp].d([m5C])[sp].d(T)[sp].d(G)[sp].d(T)[sp].d(A)[sp].d([m5C])[sp].d(T)[sp].d(T)[sp].d(T)[sp].[moe](T)p.[moe]([m5C])[sp].[moe](T)}$$$$ (last 3' nucleoside missing) | 1 |
